This is an account of results in patent US20050106745A1, “Combination of solubility and membrane permeability measurement methods for profiling of chemical compounds” (AGY Therapeutics, Inc., priority 2003, published 2005).

Converted amounts (≈) assume the structure as drawn. Where a name gives a salt, the structure may show the parent alone. Read-outs that look alike come from different tables or passages of the source.

For series [1] the following is noted: rat model, literature (Kelder et al. 1999); cited from earlier work.
Another series is described as follows: physchem. The following applies: for solubility kinetic at 90 min / solubility at 90 min: kinetic from dmso stock. How it is done: The aqueous and aqueous/methanol solutions were shaken for 90 minutes at room temperature. Using a 96-tip Biomek FX liquid handling system (Beckman Coulter, Fullterton, Calif.), the solutions were transferred to a MultiScreen-Solubility 96-well filterplate (MSSLBPC10, Millipore, Mass.), vacuum filtered, and collected into a clean 96-deepwell plate. […] The sample wells were diluted in the UV/Vis plate with pre-dispensed methanol (20% v/v) for spectroscopic consistency. The remaining portion of the filtrate was sealed and kept in a cool, dark place to be used within 2 hours in the permeability assay. […] The absorption spectra were then corrected for variance in path length by the PathCheck™ algorithm in the SoftMaxPro® software. Next, the optical density (OD) at an appropriate wavelength (λ) was determined for each compound by the analysis algorithm as follows: the UV-Visible spectra were analyzed with a program written in HPBASIC for Windows (TransEra Corporation, Orem, Utah). Briefly, from the spectrum of each well a heuristically matched, scaled and appropriately shifted baseline was subtracted. The locations (λ) and the values of all the peaks [OD(λ)] were then determined. […] In addition, built in user interface tools offered a convenient way to review and manually reassign the λ values to address special cases. When no peaks were found in the spectra, the OD values at 265 nm were used.
For the solubility calculation, a consensus λ was determined for the sample and reference spectra and the corresponding OD values were used in equation (1). The concentrations of the compounds in solution were determined by the following formula: [formula] where OD(λ)sample and OD(λ)Reference are the optical densities at a given wavelength for each compound and [Reference] is the same compound at a known reference concentration.

The nature of series [2]: BBB-PAMPA effective permeability (Sol-PAMPA). The conditions noted are these: for Papp at 16 h: PAMPA; for AGY Ranking (CNS+/CNS−): ranking from BBB-Sol-PAMPA Pe; for Pe × 10^−6 (effective BBB permeability): BBB-PAMPA, pH 7.4 to 7.4, input at solubility limit, 16 hours, n=7. For orientation: In PAMPA a lipid-coated filter parts donor from acceptor wells.
For series [3] the following is noted: cited from earlier work.
For series [4] the following is noted: cited from earlier work. The source holds these as a separate data set.
For series [5] the following is noted: PAMPA.
Another series in a line: in vitro. The following applies: PAMPA, pH 7.4.

Turning to `CN(C)CCC=C1c2ccccc2CCc2ccccc21` [Amitriptyline HCl, amitriptyline], the “[Brain]/[Blood]” value in series [1] is on record as 9.55. The kinetic solubility (in general, the concentration staying in solution when a stock, usually in DMSO, is diluted into the medium) at 90 min in the series “physchem” (pH 7.4, aqueous buffer) stood at 163 µM. Further, in series [2] (pH 7.4), the Papp (commonly the rate of passage across a membrane or cell layer, normalised by area and donor concentration) at 16 h turned out to be 12.8 ×10⁻⁶ cm/s. Also, the “AGY Ranking (CNS+/CNS−)” value in series [2] is given as “+ (CNS+ compounds have a Pe>2.0×10^−6 cm/sec)”.
As to `Cn1c(=O)c2c(ncn2C)n(C)c1=O` [Caffeine, caffeine], the “AGY Ranking (CNS+/CNS−)” value in series [2] is listed as “− (CNS- compounds have a Pe<2.0×10^−6 cm/sec)”.
As for `NC(=O)N1c2ccccc2C=Cc2ccccc21` [Carbamazepine, carbamazepine], in series [1], the “[Brain]/[Blood]” value was 1.00. This compound also showed a kinetic solubility at 90 min in “physchem” (pH 7.4, aqueous buffer) of 253 µM (≈ 59.8 µg/mL). Moreover, in series [2] (pH 7.4), the Papp at 16 h worked out at 12.9 ×10⁻⁶ cm/s. The “AGY Ranking (CNS+/CNS−)” value in series [2] is “+ (CNS+ compounds have a Pe>2.0×10^−6 cm/sec)”.
`Clc1cccc(Cl)c1N=C1NCCN1` [Clonidine, clonidine]: in series [1], the “[Brain]/[Blood]” value is listed as 1.29. This compound had a kinetic solubility at 90 min in the series “physchem” (pH 7.4, aqueous buffer) of 248 µM (≈ 57.1 µg/mL). Moreover, the Papp at 16 h in series [2] (pH 7.4) came out at 2.01 ×10⁻⁶ cm/s. Also, the “AGY Ranking (CNS+/CNS−)” value in series [2] is given as “+ (CNS+ compounds have a Pe>2.0×10^−6 cm/sec)”.
`CNCCCN1c2ccccc2CCc2ccccc21` [Desipramine, desipramine]: in series [1], the “[Brain]/[Blood]” value is 10.00. Moreover, the “Literature (solubility)” value in series [3] (pH 7.4) was 155 µM. Moreover, the solubility (usually the concentration that dissolves in the medium under given conditions) at 90 min in the series “physchem” (pH 3, aqueous buffer) was above 350 µM; in the series “physchem” (pH 5, aqueous buffer), above 350 µM; in the series “physchem” (pH 7.4, aqueous buffer), above 350 µM; in “physchem” (pH 9, aqueous buffer), above 350 µM. The compound also came in with a solubility (kinetic) at 90 min in the series “physchem” (pH 7.4, aqueous buffer) of 274 µM (≈ 73 µg/mL). This compound displayed a Papp at 16 h in series [2] (pH 7.4) of 17.9 ×10⁻⁶ cm/s. Also, the “AGY Ranking (CNS+/CNS−)” value in series [2] is on record as “+ (CNS+ compounds have a Pe>2.0×10^−6 cm/sec)”.
In the case of `CN1CC[C@@]23CCCC[C@@H]2[C@@H]1Cc1ccc(O)cc13` [Dextrophan, dextrophan], the “In Vivo CNS +/−” value in series [4] is given as “+”. Also, in series [5], the “AGY Ranking (CNS+/CNS−)” value was “+ (key: CNS+ compounds have a Pe>2.0×10^−6 cm/sec; CNS- compounds have a Pe<2.0×10^−6 cm/sec)”. Besides, the “Pe × 10^−6 (effective BBB permeability)” value in series [5] (pH 7.4) is on record as 3.14 ×10^−6 cm/sec. Further, the “pH 7.4 Solubility” value in the series “physchem” (pH 7.4, Table 2 test set, n=7) turned out to be 300 μM.
Consider `O=C(O)Cc1ccccc1Nc1c(Cl)cccc1Cl` [Diclofenac, diclofenac], for which the “Literature (solubility)” value was 30 µM in series [3] (pH 5), above 350 µM in series [3] (pH 7.4) and above 350 µM in series [3] (pH 9). For the same compound, the solubility at 90 min was 9 µM (≈ 2.67 µg/mL) in the series “physchem” (pH 3, aqueous buffer); 18 µM (≈ 5.33 µg/mL) in “physchem” (pH 5, aqueous buffer); 274 µM (≈ 81.1 µg/mL) in the series “physchem” (pH 7.4, aqueous buffer); 324 µM (≈ 96 µg/mL) in “physchem” (pH 9, aqueous buffer). The compound further registered a Papp at 16 h in series [2] of around 10 ×10⁻⁶ cm/s.
As to `COCCCC/C(=N\OCCN)c1ccc(C(F)(F)F)cc1` [Fluvoxamine, fluvoxamine], in the series “physchem” (pH 7.4, aqueous buffer), the solubility (kinetic) at 90 min was 207 µM (≈ 65.9 µg/mL).
`Cc1cc(NC(=O)C2=C(O)c3ccccc3S(=O)(=O)N2C)no1` [Isoxicam, isoxicam] registered a solubility (kinetic) at 90 min in “physchem” (pH 7.4, aqueous buffer) of 322 µM (≈ 108 µg/mL). This compound also yielded a Papp at 16 h in series [2] (pH 7.4) of 0.71 ×10⁻⁶ cm/s. For the same compound, in series [2], the “AGY Ranking (CNS+/CNS−)” value was “− (CNS- compounds have a Pe<2.0×10^−6 cm/sec)”.
On to `CCn1cc(C(=O)O)c(=O)c2cc(F)c(N3CCNC(C)C3)c(F)c21` (centres unmarked) [Lomafloxacin, lomafloxacin], for which the “pH 7.4 Solubility” value in “physchem” (90 min, pH 7.4) amounted to 288 μM. In series [2], the “Pe × 10^−6 (effective BBB permeability)” value was 0.17 ×10^−6 cm/sec and the “AGY Ranking (CNS+/CNS−)” value was “− (CNS- compounds have a Pe<2.0×10^−6 cm/sec)”.
On to `CN(C)C(=O)C(CCN1CCC(O)(c2ccc(Cl)cc2)CC1)(c1ccccc1)c1ccccc1` [Loperamide], for which the kinetic solubility at 90 min in the series “physchem” (pH 7.4, aqueous buffer) turned out to be 165 µM (≈ 78.7 µg/mL). For the same compound, the Papp in the series “in vitro” came out at 1.07 ×10⁻⁶ cm/s. Moreover, the “AGY Ranking (CNS+/CNS−)” value in series [2] was “− (CNS- compounds have a Pe<2.0×10^−6 cm/sec)”.
For the compound `C[C@]12N[C@H](Cc3ccccc31)c1ccccc12` [MK-801, dizocilpine], in “physchem” (pH 7.4, aqueous buffer), the solubility (kinetic) at 90 min came to 212 µM (≈ 46.9 µg/mL).
For the compound `CC(C)(C)[N+]([O-])=Cc1ccccc1` [N-tert-Butyl-a-phenylnitrone, N-tert-Butyl-alpha-phenylnitrone], in series [2], the “AGY Ranking (CNS+/CNS−)” value is “+ (CNS+ compounds have a Pe>2.0×10^−6 cm/sec)”.
Regarding `Nc1ccc(/N=N/c2ccccc2)c(N)n1` [Phenazopyridine, phenazopyridine], the “Literature (solubility)” value in series [3] (pH 3) is above 350 µM; in series [3] (pH 5), 150 µM; in series [3] (pH 7.4) it was 58 µM; in series [3] (pH 9) it was 49 µM. Also, the solubility at 90 min in “physchem” (pH 3, aqueous buffer) came to 332 µM (≈ 70.8 µg/mL); in the series “physchem” (pH 5, aqueous buffer) it was 89 µM (≈ 19 µg/mL); in the series “physchem” (pH 7.4, aqueous buffer), 86 µM (≈ 18.3 µg/mL); in the series “physchem” (pH 9, aqueous buffer) it was 71 µM (≈ 15.1 µg/mL).
In the case of `CN1C(C(=O)Nc2ccccn2)=C(O)c2ccccc2S1(=O)=O` [Piroxicam, piroxicam], the “Literature (solubility)” value is 32 µM in series [3] (pH 3), 32 µM in series [3] (pH 5), 300 µM in series [3] (pH 7.4) and above 350 µM in series [3] (pH 9). The solubility at 90 min turned out to be 55 µM (≈ 18.2 µg/mL) in “physchem” (pH 3, aqueous buffer); 66 µM (≈ 21.9 µg/mL) in the series “physchem” (pH 5, aqueous buffer); 257 µM (≈ 85.2 µg/mL) in “physchem” (pH 7.4, aqueous buffer); 336 µM (≈ 111 µg/mL) in the series “physchem” (pH 9, aqueous buffer).
As for `CC(C)NCC(O)COc1cccc2ccccc12` (centres unmarked) [Propranolol, s-propranolol], in series [3] (pH 7.4), the “Literature (solubility)” value was 240 µM. The solubility at 90 min in “physchem” (pH 3, aqueous buffer) is above 350 µM; in the series “physchem” (pH 5, aqueous buffer), above 350 µM; in “physchem” (pH 7.4, aqueous buffer), above 350 µM; in “physchem” (pH 9, aqueous buffer), above 350 µM.
The compound `c1ccc2nc(N3CCNCC3)ccc2c1` [Quipazine] displayed a solubility (kinetic) at 90 min in “physchem” (pH 7.4, aqueous buffer) of 239 µM (≈ 51 µg/mL). In series [2] (pH 7.4), this compound registered a Papp at 16 h of 14.9 ×10⁻⁶ cm/s. For the same compound, in series [2], the “AGY Ranking (CNS+/CNS−)” value was “+ (CNS+ compounds have a Pe>2.0×10^−6 cm/sec)”.
In the case of `CNC(=C[N+](=O)[O-])NCCSCc1ccc(CN(C)C)o1` [Ranitidine HCl, ranitidine], the “[Brain]/[Blood]” value in series [1] is given as 0.06. The kinetic solubility at 90 min in the series “physchem” (pH 7.4, aqueous buffer) stood at 174 µM. In series [2] (pH 7.4), this compound had a Papp at 16 h of 0.02 ×10⁻⁶ cm/s. The “AGY Ranking (CNS+/CNS−)” value in series [2] is “− (CNS- compounds have a Pe<2.0×10^−6 cm/sec)”.
As to `Cl.NC1CCN(c2cccc(Cl)n2)CC1` [SR-57227A], the “pH 7.4 Solubility” value in “physchem” (pH 7.4, Table 2 test set, n=7) is given as 294 μM. In series [2], the “Pe × 10^−6 (effective BBB permeability)” value is 6.12 ×10^−6 cm/sec and the “AGY Ranking (CNS+/CNS−)” value is on record as “+ (CNS+ compounds have a Pe>2.0×10^−6 cm/sec)”.
For the compound `Cn1c(=O)c2[nH]cnc2n(C)c1=O` [Theophylline, theophylline], the “Literature (solubility)” value in series [3] (pH 7.4) was above 350 µM. Besides, the solubility at 90 min in “physchem” (pH 3, aqueous buffer) is 330 µM (≈ 59.5 µg/mL); in “physchem” (pH 5, aqueous buffer) it was 337 µM (≈ 60.7 µg/mL); in the series “physchem” (pH 7.4, aqueous buffer), 290 µM (≈ 52.2 µg/mL); in “physchem” (pH 9, aqueous buffer), above 350 µM.
As for `c1cc(CN2CCCCC2)cc(OCCCNc2nc3ccccc3s2)c1` [Zolantidine], the “[Brain]/[Blood]” value in series [1] was 1.38. The kinetic solubility at 90 min in the series “physchem” (pH 7.4, aqueous buffer) amounted to 108 µM (≈ 41.2 µg/mL). In series [2] (pH 7.4), this compound registered a Papp at 16 h of 12.5 ×10⁻⁶ cm/s. In addition, the “AGY Ranking (CNS+/CNS−)” value in series [2] was “+ (CNS+ compounds have a Pe>2.0×10^−6 cm/sec)”.
